Test results taken from patent publication US5246929A, “Naphtho thiazine (or oxaline) derivatives and preparations thereof” (Tanabe Seiyaku Co., Ltd., priority 1990, dated 1993).
Where a name gives a salt, the structure may show the parent alone.

Assays:
Format in all cases: in vivo
[1] = test system: cerebral anoxia induced by potassium cyanide; experiment: Activity for protecting cerebral anoxia induced by potassium cyanide (survival time); settings: 10 mg/kg orally, mice; potassium cyanide 2.4 mg/kg tail vein one hour later
mice = experiment: Acute oral toxicity in mice; settings: 500 mg/kg orally, 7 days
Description: The compounds (I) of this invention can inhibit the calcium entrance into the cerebral synaptosome and show excellent central calcium antagonistic activity and/or excellent calcium antagonistic activity in cerebral blood vessel, and can be used for the treatment and prophylaxis of cerebral diseases due to cerebral blood flow disorder at acute and chronic periods, for example, subarachnoid hemorrhage, cerebral infarction, etc. The compounds (I) of this invention have also an activity for protecting cerebral neurocyte. For example, when 2-(4-chlorophenyl)-4-(diethylamino)acetyl-3,4-dihydro-2H-1,4-benzothiazinewas intraperitoneally administered to evanescent cerebral ischemic rats with ligating four vessels in a dose of 1.5 mg/kg twice a day for four days, it increased the number of normal pyramidal cells at hippocampul CA1 region in about 90% in comparison with the non-medicated group. Accordingly, the compounds (I) of this invention can effectively be used for the prophylaxis, treatment and amelioration of sequelae of cerebral neurocyte dyscrasia, for example, disturbances of consciousness (e.g. somnolenz, sopor, coma, stupor, clouding of consciousness, etc.), motor paralysis (e.g. parkinsonism, etc.), cerebral neuropathy (e.g. dysuria, etc.), speech and language disorders (e.g. articulation disorders, aphasia, semantic aphasia, etc.), sensitive disorders (e.g. pain, sysesthesia, heat sensibility disorder, etc.), psychological disorders (e.g. dementia, hallucination, delusion, delirium, poriomania, melancholia, neurosis, emotional incontinence, etc.), and the like, and further the prophylaxis of palindromia and also the prophylaxis of exacerbation and progression of the symptoms. […] In addition, the compounds (I) of this invention have low toxicity and has high safety.

[2] = test system: normal pyramidal cells at hippocampul CA1 region; experiment: Number of normal pyramidal cells in evanescent cerebral ischemic rats with ligating four vessels; settings: 1.5 mg/kg intraperitoneally twice a day for four days, four vessels ligated
Description: The compounds (I) of this invention can inhibit the calcium entrance into the cerebral synaptosome and show excellent central calcium antagonistic activity and/or excellent calcium antagonistic activity in cerebral blood vessel, and can be used for the treatment and prophylaxis of cerebral diseases due to cerebral blood flow disorder at acute and chronic periods, for example, subarachnoid hemorrhage, cerebral infarction, etc. The compounds (I) of this invention have also an activity for protecting cerebral neurocyte. For example, when 2-(4-chlorophenyl)-4-(diethylamino)acetyl-3,4-dihydro-2H-1,4-benzothiazinewas intraperitoneally administered to evanescent cerebral ischemic rats with ligating four vessels in a dose of 1.5 mg/kg twice a day for four days, it increased the number of normal pyramidal cells at hippocampul CA1 region in about 90% in comparison with the non-medicated group. […]

Molecule	mortality of mice (mice)	also measured
4-(dimethylamino)acetyl-2-(4-fluorophenyl)-3,4-dihydro-2H-1,4-benzothiazine oxalate [Example 1]		Prolonging rate of survival time [1]: 62%
CN(C)CCCN1C(=O)C(c2cccc(C(F)(F)F)c2)Sc2ccc3ccccc3c21.O=C(O)C(=O)O (centres unmarked) [1-[3-(dimethylamino)propyl]-3-(3-trifluoromethylphenyl)-1H-naphtho[2,1-b][1,4]thiazin-2(3H)-one oxalate]	no mouse died even after 7 days	
CCN(CC)CC(=O)N1CC(c2ccc(Cl)cc2)Sc2ccccc21 (centres unmarked) [2-(4-chlorophenyl)-4-(diethylamino)acetyl-3,4-dihydro-2H-1,4-benzothiazine]		increase of the number of normal pyramidal cells at hippocampul CA1 region in comparison with the non-medicated group [2]: about 90%
CCN(CC)CC(=O)N1CC(c2ccc(Cl)cc2)Sc2ccccc21 (centres unmarked) [2-(4-chlorophenyl)-4-(diethylamino)acetyl-3,4-dihydro-2H-1,4-benzothiazineoxalate]	no mouse died even after 7 days	
CCN(CC)CC(=O)N1CC(c2ccc(Cl)cc2)Sc2ccc3ccccc3c21 (centres unmarked) [3-(4-chlorophenyl)-1-(diethylamino)acetyl-2,3-dihydro-1H-naphtho[2,1-b][1,4]thiazine oxalate]	no mouse died even after 7 days	
